Results from patent publication US20020031795A1, “Nitrocoumarins for detecting all micro-organisms” (priority 1998, published 2002).

How the values were obtained:
[1] = system: E. coli (NCTC strain 10418); assay: Fluorescent signal generated by E. coli reducing nitrocoumarins (nitroaryl reductase activity); type: cell-based, Escherichia coli
Protocol: A sample of the 7-nitrocoumarin derivative is dissolved in 4 ml of hot, distilled water. The mass dissolved to make the stock solution is such that the final concentration of the compound in the assay is 0.105 mmol/l. This solution is added to 96 ml of Mueller-Hinton broth and the mixture is sterile-filtered.
The E. coli was grown for 24 hours at 35° C. on Columbia agar supplemented with sheep blood. The bacteria were then resuspended in sterile, distilled water and their density was adjusted to 0.5 on the MacFarland scale (i.e. about 10^8 cells/ml). This suspension was then diluted 100-fold in sterile Mueller-Hinton broth (i.e. to a final density of about 10^6 cells/ml).
Fifty microliters of each nitrocoumarin solution plus 50 μl of bacterial suspension were then added to the wells of a microtiter plate. The plates were incubated at 35° C. and the optical density and fluorescence of each well was read every 30 min for a total of 4 hours. Optical density (690 nm) readings were made using an Anthos 2001 spectrophotometer (Labtech International Limited), and fluorescence (excitation at 365 nm and emission at 440 nm) readings were made on a Biolite F1 2001 fluorometer (Labtech International Limited).
The effect of the concentration of 7-nitrocoumarin-3-carboxylic acid on the sensitivity of the assay to detect E. coli (NCTC strain 10418) was investigated at concentrations of the indicator ranging from 0 to 0.262 mmol/l. All other conditions were identical to those described in section A above.

[2] = system: Enterobacteriaceae, non-fermenting Gram-positive bacilli, Staphylococcus spp., Streptococcus spp., Listeria spp. and yeasts; assay: Reduction of nitrocoumarin derivatives by most microorganisms (results not presented); type: cell-based

**Q.** With `O=C(O)c1cc2ccc([N+](=O)[O-])cc2oc1=O` [7-nitrocoumarin-3-carboxylic acid] as the compound, how does the Fluorescent signal ([1]; 0.005 mmol/l, 0 min) read?
**A.** 0

**Q.** What about the Fluorescent signal ([1]; 0.005 mmol/l, 30 min) of the same compound?
**A.** −134

**Q.** What about the Fluorescent signal ([1]; 0.005 mmol/l, 60 min) of the same compound?
**A.** −164

**Q.** And the Fluorescent signal ([1]; 0.005 mmol/l, 90 min)?
**A.** −122

**Q.** What about the Fluorescent signal ([1]; 0.005 mmol/l, 120 min) of the same compound?
**A.** −94

**Q.** What about the Fluorescent signal ([1]; 0.005 mmol/l, 150 min) of the same compound?
**A.** −9

**Q.** And the Fluorescent signal ([1]; 0.005 mmol/l, 180 min)?
**A.** 406

**Q.** What about the Fluorescent signal ([1]; 0.005 mmol/l, 210 min) of the same compound?
**A.** 1307

**Q.** And the Fluorescent signal ([1]; 0.005 mmol/l, 240 min)?
**A.** 2466

**Q.** What about the Fluorescent signal ([1]; 0.013 mmol/l, 0 min) of the same compound?
**A.** 0

**Q.** And the Fluorescent signal ([1]; 0.013 mmol/l, 30 min)?
**A.** −113

**Q.** And the Fluorescent signal ([1]; 0.013 mmol/l, 60 min)?
**A.** −141

**Q.** What about the Fluorescent signal ([1]; 0.013 mmol/l, 90 min) of the same compound?
**A.** −76

**Q.** And the Fluorescent signal ([1]; 0.013 mmol/l, 120 min)?
**A.** −22

**Q.** And the Fluorescent signal ([1]; 0.013 mmol/l, 150 min)?
**A.** 174

**Q.** What about the Fluorescent signal ([1]; 0.013 mmol/l, 180 min) of the same compound?
**A.** 1068

**Q.** And the Fluorescent signal ([1]; 0.013 mmol/l, 210 min)?
**A.** 3073

**Q.** And the Fluorescent signal ([1]; 0.013 mmol/l, 240 min)?
**A.** 5902

**Q.** What about the Fluorescent signal ([1]; 0.026 mmol/l, 0 min) of the same compound?
**A.** 0

**Q.** What about the Fluorescent signal ([1]; 0.026 mmol/l, 30 min) of the same compound?
**A.** −91

**Q.** What about the Fluorescent signal ([1]; 0.026 mmol/l, 60 min) of the same compound?
**A.** −110

**Q.** And the Fluorescent signal ([1]; 0.026 mmol/l, 90 min)?
**A.** −39

**Q.** And the Fluorescent signal ([1]; 0.026 mmol/l, 120 min)?
**A.** 71

**Q.** What about the Fluorescent signal ([1]; 0.026 mmol/l, 150 min) of the same compound?
**A.** 467

**Q.** What about the Fluorescent signal ([1]; 0.026 mmol/l, 180 min) of the same compound?
**A.** 2311

**Q.** And the Fluorescent signal ([1]; 0.026 mmol/l, 210 min)?
**A.** 6028

**Q.** And the Fluorescent signal ([1]; 0.026 mmol/l, 240 min)?
**A.** 11387

**Q.** What about the Fluorescent signal ([1]; 0.052 mmol/l, 0 min) of the same compound?
**A.** 0

**Q.** What about the Fluorescent signal ([1]; 0.052 mmol/l, 30 min) of the same compound?
**A.** −83

**Q.** And the Fluorescent signal ([1]; 0.052 mmol/l, 60 min)?
**A.** −76

**Q.** What about the Fluorescent signal ([1]; 0.052 mmol/l, 90 min) of the same compound?
**A.** 33

**Q.** What about the Fluorescent signal ([1]; 0.052 mmol/l, 120 min) of the same compound?
**A.** 241

**Q.** What about the Fluorescent signal ([1]; 0.052 mmol/l, 150 min) of the same compound?
**A.** 861

**Q.** What about the Fluorescent signal ([1]; 0.052 mmol/l, 180 min) of the same compound?
**A.** 4004

**Q.** What about the Fluorescent signal ([1]; 0.052 mmol/l, 210 min) of the same compound?
**A.** 10584

**Q.** What about the Fluorescent signal ([1]; 0.052 mmol/l, 240 min) of the same compound?
**A.** 19530

**Q.** What about the “Fluorescent signal relative to that given by any of the other substrates” value ([1]; 0.105 mmol/l) of the same compound?
**A.** more than twice as high

**Q.** What about the Fluorescent signal ([1]; 0.105 mmol/l, 0 min) of the same compound?
**A.** 0

**Q.** What about the Fluorescent signal ([1]; 0.105 mmol/l, 30 min) of the same compound?
**A.** −67

**Q.** And the Fluorescent signal ([1]; 0.105 mmol/l, 60 min)?
**A.** 4

**Q.** What about the Fluorescent signal ([1]; 0.105 mmol/l, 90 min) of the same compound?
**A.** 181

**Q.** And the Fluorescent signal ([1]; 0.105 mmol/l, 120 min)?
**A.** 586

**Q.** And the Fluorescent signal ([1]; 0.105 mmol/l, 150 min)?
**A.** 1694

**Q.** And the Fluorescent signal ([1]; 0.105 mmol/l, 180 min)?
**A.** 6724

**Q.** And the Fluorescent signal ([1]; 0.105 mmol/l, 210 min)?
**A.** 17495

**Q.** What about the Fluorescent signal ([1]; 0.105 mmol/l, 240 min) of the same compound?
**A.** 31314

**Q.** What about the “Extent of reduction of the substrate (in words)” value ([1]; 0.105 mmol/l, end of the four-hour assay) of the same compound?
**A.** reduced to a far greater extent than any of the other nitrocoumarins

**Q.** And the Fluorescent signal ([1]; 0.157 mmol/l, 0 min)?
**A.** 0

**Q.** And the Fluorescent signal ([1]; 0.157 mmol/l, 30 min)?
**A.** −74

**Q.** And the Fluorescent signal ([1]; 0.157 mmol/l, 60 min)?
**A.** 48

**Q.** And the Fluorescent signal ([1]; 0.157 mmol/l, 90 min)?
**A.** 280

**Q.** What about the Fluorescent signal ([1]; 0.157 mmol/l, 120 min) of the same compound?
**A.** 811

**Q.** What about the Fluorescent signal ([1]; 0.157 mmol/l, 150 min) of the same compound?
**A.** 2231

**Q.** What about the Fluorescent signal ([1]; 0.157 mmol/l, 180 min) of the same compound?
**A.** 8264

**Q.** What about the Fluorescent signal ([1]; 0.157 mmol/l, 210 min) of the same compound?
**A.** 21022

**Q.** And the Fluorescent signal ([1]; 0.157 mmol/l, 240 min)?
**A.** 36517

**Q.** And the Fluorescent signal ([1]; 0.210 mmol/l, 0 min)?
**A.** 0

**Q.** And the Fluorescent signal ([1]; 0.210 mmol/l, 30 min)?
**A.** −6

**Q.** What about the Fluorescent signal ([1]; 0.210 mmol/l, 60 min) of the same compound?
**A.** 88

**Q.** And the Fluorescent signal ([1]; 0.210 mmol/l, 90 min)?
**A.** 354

**Q.** And the Fluorescent signal ([1]; 0.210 mmol/l, 120 min)?
**A.** 979

**Q.** What about the Fluorescent signal ([1]; 0.210 mmol/l, 150 min) of the same compound?
**A.** 2588

**Q.** And the Fluorescent signal ([1]; 0.210 mmol/l, 180 min)?
**A.** 9000

**Q.** What about the Fluorescent signal ([1]; 0.210 mmol/l, 210 min) of the same compound?
**A.** 21589

**Q.** And the Fluorescent signal ([1]; 0.210 mmol/l, 240 min)?
**A.** 37823

**Q.** What about the Fluorescent signal ([1]; 0.262 mmol/l, 0 min) of the same compound?
**A.** 0

**Q.** What about the Fluorescent signal ([1]; 0.262 mmol/l, 30 min) of the same compound?
**A.** 3

**Q.** What about the Fluorescent signal ([1]; 0.262 mmol/l, 60 min) of the same compound?
**A.** 131

**Q.** And the Fluorescent signal ([1]; 0.262 mmol/l, 90 min)?
**A.** 446

**Q.** What about the Fluorescent signal ([1]; 0.262 mmol/l, 120 min) of the same compound?
**A.** 1190

**Q.** And the Fluorescent signal ([1]; 0.262 mmol/l, 150 min)?
**A.** 3037

**Q.** And the Fluorescent signal ([1]; 0.262 mmol/l, 180 min)?
**A.** 9721

**Q.** And the Fluorescent signal ([1]; 0.262 mmol/l, 210 min)?
**A.** 22066

**Q.** What about the Fluorescent signal ([1]; 0.262 mmol/l, 240 min) of the same compound?
**A.** 37949

**Q.** What about the “Reduction to give a fluorescent signal (in words)” value [2] of the same compound?
**A.** All were capable of reducing
